In patent US20120225062A1 (priority 2011, published 2012):

Experiments:
Pim 1 = Pim 1 (Homo sapiens, UniProt P11309); assay: Pim 1 AlphaScreen assay (high ATP)
Pim 3 = Pim 3 (Homo sapiens, UniProt Q86V86); assay: Pim 3 AlphaScreen assay (high ATP)
[1] = test system: KMS11 (human myeloma cell line); assay: Cell Proliferation Assay (CellTiter-Glo, 3 days); type: cell-based; conditions: KMS-11, 72 h, KMS11-luc cells
Method in brief: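 EC50 from CellTiter-Glo luminescence after 3-day, 37° C compound treatment of KMS11 cells seeded at 2000 per well in IMDM plus 10% FBS.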

Pim 2 = Pim 2 (Homo sapiens, UniProt Q9P1W9); assay: Pim 2 AlphaScreen assay (high ATP)
Pim 2, sequence (Q9P1W9 whole entry): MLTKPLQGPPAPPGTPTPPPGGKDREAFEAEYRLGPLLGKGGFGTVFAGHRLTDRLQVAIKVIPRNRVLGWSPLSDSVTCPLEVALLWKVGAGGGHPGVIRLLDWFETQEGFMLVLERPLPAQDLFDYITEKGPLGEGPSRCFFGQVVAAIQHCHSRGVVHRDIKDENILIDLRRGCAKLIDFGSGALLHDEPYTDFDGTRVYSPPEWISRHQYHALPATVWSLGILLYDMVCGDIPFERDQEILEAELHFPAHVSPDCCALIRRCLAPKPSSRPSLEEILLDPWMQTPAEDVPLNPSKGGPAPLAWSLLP

Pim 1, sequence (P11309 whole entry): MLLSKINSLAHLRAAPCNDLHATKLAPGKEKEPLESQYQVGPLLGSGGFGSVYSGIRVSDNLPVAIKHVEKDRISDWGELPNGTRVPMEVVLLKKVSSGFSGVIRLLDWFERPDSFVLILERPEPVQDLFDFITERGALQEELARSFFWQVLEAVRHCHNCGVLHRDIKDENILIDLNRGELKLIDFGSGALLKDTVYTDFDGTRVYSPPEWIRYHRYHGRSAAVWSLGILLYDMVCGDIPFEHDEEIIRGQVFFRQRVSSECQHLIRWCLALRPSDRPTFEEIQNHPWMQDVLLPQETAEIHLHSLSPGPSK

SMILES: C[C@@H]1C[C@H](N)C[C@H](c2ccncc2NC(=O)c2ccc(F)c(-c3c(F)cc4c(c3F)OCC[C@@]4(C)O)n2)C1 [Example 240, N-(4-((1R,3S,5S)-3-amino-5-methylcyclohexyl)pyridin-3-yl)-6-((R)-6,8-difluoro-4-hydroxy-4-methylchroman-7-yl)-5-fluoropicolinamide]
- IC50 (Pim 1): 0.02 nM
- IC50 (Pim 3): 0.43 nM
- EC50 [1]: 23 nM
- IC50 (Pim 2): 1.67 nM

SMILES: C[C@@H]1C[C@H](N)C[C@H](c2ccncc2NC(=O)c2nc(-c3c(F)cc(C4COC4)cc3F)c(F)cc2N)C1 [Example 241, 3-amino-N-(4-((1R,3S,5S)-3-amino-5-methylcyclohexyl)pyridin-3-yl)-6-(2,6-difluoro-4-(oxetan-3-yl)phenyl)-5-fluoropicolinamide]
- IC50 (Pim 1): 0.02 nM
- IC50 (Pim 3): 0.61 nM
- EC50 [1]: 30 nM
- IC50 (Pim 2): 1.24 nM
